Columns and labels:
mammary cancer cells [1] = test: Transformation assay (soft agar colony formation); assay type: cell-based, mouse; conditions: compared to shControl
Description: Agar was mixed in Roswell Park Memorial Institute medium (RPMI) with 20% FBS. A total of 500 μl of 0.5% agar was added to 24-well plate and allowed to solidify. Cells were plated at 1,250 cells/well in 500 μl of 0.35% agarose. Some 250 μl of the appropriate growth medium was added on top of the agarose layer. Growth medium was replaced twice a week. Colonies were stained with crystal violet and imaged. Colonies from five different fields were counted and averaged.

E0771 or 4T1 cells = test: Cell invasion assay (Matrigel); assay type: cell-based, mouse; conditions: 24 h
Description: The apical chamber of 24-well cell culture inserts (Merck Millipore) were coated with 3 mg/ml of Matrigel (100 μl) (Sigma-Aldrich) and allowed to solidify for 5 hours. A total of 100,000 sh413- or shControl-transduced E0771 or 4T1 cells in serum-free medium were plated on top of the Matrigel layer. Culture medium containing 10% FBS and 5 μg/ml fibronectin (adhesive substrate) (Sigma-Aldrich) was added to the basal chamber of the unit (600 μl) and cells were allowed to invade through the membranous barrier for 24 hours at 37° C. Noninvasive cells were washed off; invasive cells were fixed with 4% PFA, permeabilized with 100% methanol, labeled with Giemsa stain and imaged as described in the previous paragraph. Images were processed using Image J software. Cells from five different fields were counted and averaged.

E0771 cells [2] = test: MEF adhesion assay; assay type: cell-based, mouse; conditions: luciferase bioluminescence and PKH67Green
Description: Murine embryonic fibroblasts (MEFs) were grown to confluency in 6-well plates. Equivalent numbers (150,000) of cancer cells labeled with PKH67Green fluorescent cell linker, following the manufacturer's instructions (Sigma-Aldrich), were added to the MEF monolayer and allowed to incubate for 8 hours. Non-adhered cells were washed off and adhered cells imaged. Image J (NIH, Bethesda, Md., USA) was used to quantify the number of PKH67Greenpositive cells. In parallel, luciferase-expressing cancer cells were added to MEFs monolayers in 6-well plates for 8 hours. Non-adhered cells were washed off and adhered cells were treated with D-luciferin and imaged using IVIS. For luciferase assay, cancer cells plated in 96-well plate were used for quantitation of luciferase bioluminescence.

mammary cancer cells [3] = test: Scratch assay; assay type: cell-based, mouse; conditions: 6 h and 24 h
Description: Confluent monolayers of cancer cells plated in 12-well plates were scratched using a pipette tip. Fresh medium was added to the wells. Cells were allowed to migrate for 0, 6 or 24 hours before fixation (4% paraformaldehyde (PFA) for 45 minutes). Fixed cells were washed (1×PBS) and imaged with a Nikon Eclipse Ti microscope adjusted with a Nikon digital sight camera (Nikon, Tokyo, Japan). Images were processed and migrated cells counted using Image J software.

4T1 cells [4] = test: Tail vein injection of 4T1 cells, lung metastasis; assay type: in vivo, BALB/c mice
Description: Metastatic tumors were generated by implanting 300,000 4T1 shControl, sh413 or sh413 WT cells in 100 μl of PBS via tail vein in five-week-old female mice. Prior to imaging, mice were anesthetized, weighed and injected intraperitoneally with D-luciferin. Mice were imaged using the Xenogen IVIS three-dimensional optical imaging system (Caliper Life Sciences). Moreover, lung metastatic tumors were imaged post-mortem and counted grossly. Moreover, spleens from shControl, sh413, or sh413 WT injected mice were isolated and weighted. Average splenic weight was calculated from 3 different mice and plotted in a bar graph. Finally, Kaplan-Meier survival plots were generated and analyzed using the Gehan-Breslow-Wilcoxon test (GraphPrism) (FIG. 44).
Protein from lungs of mice injected with 4T1 shControl, sh413, or sh413 WT cells via tail vein was isolated to perform western blots blotting for total levels of BIM, levels of activated Caspase-3 (Cleaved Caspase-3) and GAPDH. Bands from 3 different western blots were normalized to GAPDH, quantified, averaged and depicted as bar graphs (FIG. 45).

4T1 cells [5] = test: Orthotopic implantation of 4T1 cells in BALB/c mice; assay type: in vivo
Description: Five-week-old C57BL/6NCr and BALB/cAnNCr female mice were used. Mice were sacrificed when they became moribund. Tumor volume (TV) was calculated as: TV=0.5(length*width2). Tumor latency was calculated as the number of tumor-free injected mice/number of injected mice×100. To assess morbidity, the following clinical score ranking was used: (0) no abnormal clinical signs, (1) ruffled fur but lively, (2) ruffled fur, activity level slowing, sick, (3) ruffled fur, eyes squeezed shut, hunched, hardly moving, very sick, (4) moribund and (5) dead. Experiments involving mice were approved by the University of Iowa Animal Care and Use Committee (IACUC).
Prior to imaging, mice were anesthetized, weighed and injected intraperitoneally with D-luciferin. Mice were imaged using the Xenogen IVIS three dimensional optical imaging system (Caliper Life Sciences, Hopkinton, Mass., USA). Luciferase was quantified with Living Image Software (Caliper Life Sciences).

E0771 cells [6] = test: Boyden chamber assay; assay type: cell-based, mouse; conditions: 20 hours
Description: The apical chamber of 24-well cell culture inserts (Merck Millipore, Billerica, Mass., USA) were seeded with previously starved sh137, sh413 or shControl transduced E0771 cells (150,000) in serum-free medium. Culture medium containing 30% FBS was added to the basal chamber of the unit and cells were allowed to migrate through the membranous barrier for 20 hours at 37° C. Non-migrated cells were washed off, migrated cells were fixed with 4% PFA for 5 minutes, washed twice with 1×PBS, permeabilized with 100% methanol for 25 minutes, labeled with Giemsa stain (for 15 minutes at room temperature) and imaged using a Nikon Eclipse Ti microscope adjusted with an X-cite series 120 LED fluorescence microscope light source and a Nikon digital sight camera. Images were processed using Image J software. Cells from five different fields were counted and averaged.

4T1 cells [7] = test: Anoikis assay (Poly-HEMA); assay type: cell-based, mouse; conditions: 48 hours
Description: 96-well plates were coated with 50 ul of sterile 95% Ethanol or 50 ul of 12 mg/ml Poly-HEMA in 95% Ethanol (Sigma-Aldrich) and allowed to dry for 72 hours under the hood as previously described. (See Phung et al. (2011) Rapid generation of in vitro multicellular spheroids for the study of monoclonal antibody therapy. J Cancer 2: 507-514). Poly-HEMA prevents cells from attaching to the plastic. Following, 4T1 shControl, sh413, sh413 WT, or sh413 C3A cells were plated at 20,000 cells/well. Plates were centrifuged at 1,200 g for 10 minutes and then incubated at 37° C. for 48 hours. Cells were collected to test cell viability using trypan blue (Life technologies) and an MTT assay (Life technologies). The rest of the cells were pelleted and kept at −20° C. until used for RNA and protein isolation.

sh413: BST-2-targeting shRNA (SEQ ID NO:4), delivered by lentiviral particles (CCGGGCTTGAGAATGAAGTCACGAACTCGAGTTCGTGACTTCATTCTCAAGCTTTTTG)
colony numbers in soft agar (mammary cancer cells [1]): reduced colony numbers | invasion through Matrigel (E0771 or 4T1 cells): reduced the ability of the cells to invade the basement membrane | cancer cell adhesion to MEF (E0771 cells [2]): decreased the ability of cancer cells to adhere to supporting cells | migration into scratch wound (mammary cancer cells [3]): lost the ability to migrate | levels of pro-apoptotic factors (BIM, Caspase-3) in the lungs (4T1 cells [4]; tail vein injected mice): elevates levels of pro-apoptotic factors | lung metastasis (4T1 cells [4]; tail vein, 42 days): decreases lung metastasis in vivo | median overall survival (OS) (4T1 cells [5]; Kaplan-Meier): undefined | survival area under the curve (AUC) (4T1 cells [5]; Kaplan-Meier): 3,900 | number of tumors in intestine and mesentery (4T1 cells [5]; average of all mice): six | mammary tumor latency (4T1 cells [5]; compared to shControl cells): increased mammary tumor latency | tumor volume over time (4T1 cells [5]; compared to shControl tumors): significantly lower | mice survived to end of experiment (4T1 cells [5]; day 45): 14 out of 15 | incidence of metastases to the liver (4T1 cells [5]; mouse, in vivo): 46% | incidence of metastases to the lung (4T1 cells [5]; mouse, in vivo): 40% | mice spared of ascites and splenomegaly (4T1 cells [5]; mouse, in vivo): 14 out of 15 | average tumor mass (4T1 cells [5]; n=15, at necropsy): 0.37 g | rate of cell migration (Boyden chamber) (E0771 cells [6]): significantly reduced rate of cell migration | susceptibility to anoikis (4T1 cells [7]): renders cells susceptible to anoikis

From patent publication US20180200331A1, “BST-2 AS A THERAPEUTIC TARGET AND DIAGNOSTIC MARKER FOR BREAST CANCER GROWTH AND METASTASIS” (University of Iowa Research Foundation, priority 2015, published 2018)
